Results: US8796283B2, “Indole and azaindole modulators of the alpha 7 nachr” (Proximagen Limited, priority 2009, dated 2014)
Where a name gives a salt, the structure may show the parent alone. Read-outs that look alike come from different tables or passages of the source.

Target: T1, human α7 nAChR (Homo sapiens, UniProt P36544)
T1 construct: expressed in transfected cells; host or cells: GH4C1 (rat pituitary) cell line, stably transfected
Experiment: cell-based calcium flux assay (FLIPR) for PAM activity, nicotine-evoked response
Details: GH4C1 cell line stably transfected with human α7 nAChR, potentiation of nicotine calcium flux
Experimental: The PAM activity of the compounds of the invention at the α7 nAChR may be determined using the following cell-based calcium flux assay which uses a Fluorimetric Image Plate Reader (FLIPR) (see Schroeder et al.; J. Biomolecular Screening, 1(2), p 75-80, 1996). GH4C1 cell line stably transfected with human α7 nAChR was suspended in a 384 well plate and incubated at 30° C. for 48 h in a 5% carbon dioxide atmosphere. The growth media was removed and the cells washed three times with a solution of Hanks' balanced salt solution (HBSS), 20 mM HEPES and 2.5 mM probenecid leaving 20 μl washing solution in each well. A loading solution (20 μl) containing HBSS, probenecid, 1-4 μM Fluo4 AM (a calcium indicator dye) and pluronic acid was added and the plate incubated for 45 min at 37° C. under an atmosphere free from carbon dioxide. The cells were washed three times leaving 30 μl in each well. The plate containing the cells and calcium indicator dye were then transferred to the FLIPR. The assay was initiated by collecting baseline datapoints at 10 second intervals followed by addition of the test compound in buffer solution (0.33% DMSO) and diluted to a final concentration of 10 μM and serial dilution of the wells, 1:2 or 1:3, gave a low concentration of <1 nM. Following a further 5-10 mins 10 μl of 50 μM nicotine was added and data collected for 2-3 mins. Nicotine produced a rapid, transient and reproducible calcium flux which could be potentiated with the positive allosteric modulator test compounds.

[1] = read-out: pEC50 Mean (converted)

T1 sequence (P36544 23-502): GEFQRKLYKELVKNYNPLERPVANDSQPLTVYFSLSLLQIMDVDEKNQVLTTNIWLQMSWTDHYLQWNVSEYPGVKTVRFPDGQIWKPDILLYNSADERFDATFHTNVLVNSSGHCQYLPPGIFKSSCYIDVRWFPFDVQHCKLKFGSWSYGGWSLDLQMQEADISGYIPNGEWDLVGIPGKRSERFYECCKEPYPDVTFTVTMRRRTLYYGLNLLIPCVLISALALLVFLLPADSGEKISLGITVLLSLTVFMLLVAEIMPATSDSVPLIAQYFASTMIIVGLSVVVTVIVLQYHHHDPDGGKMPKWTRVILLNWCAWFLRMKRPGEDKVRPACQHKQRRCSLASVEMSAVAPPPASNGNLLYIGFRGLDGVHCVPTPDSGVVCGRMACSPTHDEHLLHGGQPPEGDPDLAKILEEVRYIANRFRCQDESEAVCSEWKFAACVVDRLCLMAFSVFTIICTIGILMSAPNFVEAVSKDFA

CCc1cc(NCc2cnc3[nH]c(C(F)(F)F)cc3c2)ncn1.Cl [5 HCl, 6-Ethyl-N-{[2-(trifluoromethyl)-1H-pyrrolo[2,3-b]pyridin-5-yl]methyl}-4-pyrimidinamine HCl]
pEC50 Mean: * (pEC50 mean of at least 5.0)

CC(F)(F)c1cc(NCc2cnc3[nH]c(C(F)(F)F)cc3c2)ncn1.Cl [8 HCl, 6-(1,1-Difluoroethyl)-N-{[2-(trifluoromethyl)-1H-pyrrolo[2,3-b]pyridin-5-yl]methyl}-4-pyrimidinamine hydrochloride]
pEC50: 6
pEC50 Mean: *** (pEC50 mean of at least 6.0)

CC(F)c1cc(NCc2cnc3[nH]c(C(F)(F)F)cc3c2)ncn1 (stereo not drawn) [9 HCl]
EC50 [1]: ≤ 3.16 µM

Cl.FC(F)c1cc(NCc2cnc3[nH]c(C(F)(F)F)cc3c2)ncn1 [10 HCl, 6-(Difluoromethyl)-N-{[2-(trifluoromethyl)-1H-pyrrolo[2,3-b]pyridin-5-yl]methyl}-4-pyrimidinamine hydrochloride]
pEC50 Mean: ** (pEC50 mean of at least 5.5)

FCc1cc(NCc2cnc3[nH]c(C(F)(F)F)cc3c2)ncn1 [11 HCl, 6-(Fluoromethyl)-N-{[2-(trifluoromethyl)-1H-pyrrolo[2,3-b]pyridin-5-yl]methyl}-4-pyrimidinamine hydrochloride]
EC50 [1]: ≤ 10 µM

Cl.FC(F)(F)c1cc2cc(CNc3cc(C4CC4)ncn3)cnc2[nH]1 [14 HCl]
pEC50 Mean: * (pEC50 mean of at least 5.0)

Cl.[2H]C([2H])(Nc1cc(C2CC2)ncn1)c1cnc2[nH]c(C(F)(F)F)cc2c1 [14-d HCl]
EC50 [1]: ≤ 3.16 µM

CCc1ncnc(NCc2cnc3[nH]c(C(F)(F)F)cc3c2)c1F [16 HCl, 6-Ethyl-5-fluoro-N-{[2-(trifluoromethyl}-1H-pyrrolo[2,3-b]pyridin-5-yl]methyl}-4-pyrimidinamine hydrochloride]
EC50 [1]: ≤ 1 µM

Cc1c(NCc2cnc3[nH]c(C(F)(F)F)cc3c2)ncnc1C(C)F (stereo not drawn) [20 HCl]
EC50 [1]: ≤ 1 µM

Cc1c(NCc2cnc3[nH]c(C(F)(F)F)cc3c2)ncnc1C(C)(F)F [21 HCl]
EC50 [1]: ≤ 1 µM

Cc1c(NCc2cnc3[nH]c(C(F)(F)F)cc3c2)ncnc1C(F)(F)F [22 HCl, 5-Methyl-6-(trifluoromethyl)-N-{[2-(trifluoromethyl)-1H-pyrrolo[2,3-b]pyridin-5-yl]methyl}-4-pyrimidinamine hydrochloride]
EC50 [1]: ≤ 1 µM

Cc1c(CF)ncnc1NCc1cnc2[nH]c(C(F)(F)F)cc2c1 [24 HCl]
EC50 [1]: ≤ 10 µM

Cc1c(NCc2cnc3[nH]c(C(F)(F)F)cc3c2)ncnc1C1CC1 [25 HCl, 6-Cyclopropyl-5-methyl-N-{[2-(trifluoromethyl)-1H-pyrrolo[2,3-b)pyridin-5-yl]methyl}-4-pyrimidinamine hydrochloride]
EC50 [1]: ≤ 3.16 µM

FC(F)(F)c1cc(NCc2cnc3[nH]c(C(F)(F)F)cc3c2)ncn1 [Example 1, 6-(Trifluoromethyl)-N-{[2-(trifluoromethyl)-1H-pyrrolo[2,3-b]pyridin-5-yl]methyl}-4-pyrimidinamine]
EC50 [1]: ≤ 1 µM

CC(C)c1cc(NCc2cnc3[nH]c(C(F)(F)F)cc3c2)ncn1 [Example 2, 6-(1-Methylethyl)-N-{[2-(trifluoromethyl)-1H-pyrrolo[2,3-b]pyridin-5-yl]methyl}-4-pyrimidinamine]
EC50 [1]: ≤ 10 µM

N#Cc1cc(NCc2cnc3[nH]c(C(F)(F)F)cc3c2)ncn1 [Example 3, 6-({[2-(Trifluoromethyl)-1H-pyrrolo[2,3-b]pyridin-5-yl]methyl}amino)-4-pyrimidinecarbonitrile]
EC50 [1]: ≤ 3.16 µM

CC(C)(C)c1cc(NCc2cnc3[nH]c(C(F)(F)F)cc3c2)ncn1 [Example 4, 6-(1,1-Dimethylethyl)-N-{[2-(trifluoromethyl)-1H-pyrrolo[2,3-b]pyridin-5-yl]methyl}-4-pyrimidinamine]
EC50 [1]: ≤ 3.16 µM

CCc1cc(NCc2cnc3[nH]c(C(F)(F)F)cc3c2)ncn1 [Example 5, 6-Ethyl-N-{[2-(trifluoromethyl)-1H-pyrrolo[2,3-b]pyridin-5-yl]methyl}-4-pyrimidinamine]
EC50 [1]: ≤ 10 µM

N#CCc1cc(NCc2cnc3[nH]c(C(F)(F)F)cc3c2)ncn1 [Example 6, [6-({[2-(Trifluoromethyl)-1H-pyrrolo[2,3-b]pyridin-5-yl]methyl}amino)-4-pyrimidinyl]acetonitrile]
EC50 [1]: ≤ 10 µM

CC(=O)c1cc(NCc2cnc3[nH]c(C(F)(F)F)cc3c2)ncn1 [Example 7, 1-[6-({[2-(Trifluoromethyl)-1H-pyrrolo[2,3-b]pyridin-5-yl]methyl}amino)-4-pyrimidinyl]ethanone]
EC50 [1]: ≤ 10 µM

CC(F)(F)c1cc(NCc2cnc3[nH]c(C(F)(F)F)cc3c2)ncn1 [Example 8, 6-(1,1-Difluoroethyl)-N-{[2-(trifluoromethyl)-1H-pyrrolo[2,3-b]pyridin-5-yl]methyl}-4-pyrimidinamine]
EC50 (read-out: pEC50 (converted)): 1 µM
EC50 [1]: ≤ 1 µM

[2H]C([2H])(Nc1cc(C(C)(F)F)ncn1)c1cnc2[nH]c(C(F)(F)F)cc2c1 [Example 8-d]
EC50 (read-out: pEC50 (converted)): 1.26 µM
EC50 [1]: ≤ 3.16 µM

CC(F)c1cc(NCc2cnc3[nH]c(C(F)(F)F)cc3c2)ncn1 (stereo not drawn) [Example 9, 6-(1-Fluoroethyl)-N-{[2-(trifluoromethyl)-1H-pyrrolo[2,3-b]pyridin-5-yl]methyl}-4-pyrimidinamine]
EC50 [1]: ≤ 10 µM

FC(F)c1cc(NCc2cnc3[nH]c(C(F)(F)F)cc3c2)ncn1 [Example 10, 6-(Difluoromethyl)-N-{[2-(trifluoromethyl)-1H-pyrrolo[2,3-b]pyridin-5-yl]methyl}-4-pyrimidinamine]
EC50 [1]: ≤ 3.16 µM

FCc1cc(NCc2cnc3[nH]c(C(F)(F)F)cc3c2)ncn1 [Example 11, 6-(Fluoromethyl)-N-{[2-(trifluoromethyl)-1H-pyrrolo[2,3-b]pyridin-5-yl]methyl}-4-pyrimidinamine]
EC50 [1]: ≤ 3.16 µM

FC(F)(F)c1cc(NCc2ccc3[nH]c(C(F)(F)F)cc3c2)ncn1 [Example 12, 6-(Trifluoromethyl)-N-{[2-(trifluoromethyl)-1H-indol-5-yl]methyl}-4-pyrimidinamine]
EC50 [1]: ≤ 3.16 µM

FC(F)(F)c1cc2cc(CNc3cc(Cl)ncn3)ccc2[nH]1 [Example 13, 6-Chloro-N-{[2-(trifluoromethyl)-1H-indol-5-yl]methyl}-4-pyrimidinamine]
EC50 [1]: ≤ 10 µM

FC(F)(F)c1cc2cc(CNc3cc(C4CC4)ncn3)cnc2[nH]1 [Example 14, 6-Cyclopropyl-N-{[2-(trifluoromethyl)-1H-pyrrolo[2,3-b]pyridin-5-yl]methyl}-4-pyrimidinamine]
EC50 [1]: ≤ 10 µM

CC(C)(F)c1cc(NCc2cnc3[nH]c(C(F)(F)F)cc3c2)ncn1 [Example 15, 6-(1-Fluoro-1-methylethyl)-N-{[2-(trifluoromethyl)-1H-pyrrolo[2,3-b]pyridin-5-yl]methyl}-4-pyrimidinamine]
EC50 (read-out: pEC50 (converted)): 0.398 µM
EC50 [1]: ≤ 1 µM

[2H]C([2H])(Nc1cc(C(C)(C)F)ncn1)c1cnc2[nH]c(C(F)(F)F)cc2c1 [Example 15-d, 6-(1-Fluoro-1-methylethyl)-N-{[2-(trifluoromethyl)-1H-pyrrolo[2,3-b]pyridin-5-yl]methyl}-4-pyrimidinamine-d2]
EC50 (read-out: pEC50 (converted)): 0.631 µM
EC50 [1]: ≤ 1 µM

FC(F)(F)c1cc2cc(CNc3cc(Cl)ncn3)cnc2[nH]1 [Example 17, 6-Chloro-N-{[2-(trifluoromethyl)-1H-pyrrolo[2,3-b]pyridin-5-yl]methyl}-4-pyrimidinamine]
EC50 [1]: ≤ 3.16 µM

CCc1cc(NCc2ccc3[nH]c(C(F)(F)F)cc3c2)ncn1 [Example 18, 6-Ethyl-N-{[2-(trifluoromethyl)-1H-indol-5-yl]methyl}-4-pyrimidinamine]
EC50 [1]: ≤ 10 µM

CCc1ncnc(NCc2cnc3[nH]c(C(F)(F)F)cc3c2)c1C [Example 19, 6-Ethyl-5-methyl-N-{[2-(trifluoromethyl)-1H-pyrrolo[2,3-b]pyridin-5-yl]methyl}-4-pyrimidinamine]
EC50 [1]: ≤ 10 µM

Cc1c(NCc2cnc3[nH]c(C(F)(F)F)cc3c2)ncnc1C(F)F [Example 23, 6-(difluoromethyl)-5-methyl-N-{[2-(trifluoromethyl)-1H-pyrrolo[2,3-b]pyridin-5-yl]methyl}-4-pyrimidinamine]
EC50 [1]: ≤ 3.16 µM
